Results taken from publication PMC6240685, “Strong Inhibitory Effect, Low Cytotoxicity and High Plasma Stability of Steroidal Inhibitors of N-Methyl-D-Aspartate Receptors With C-3 Amide Structural Motif” (Frontiers in Pharmacology, 2018).

Legend:
HepG2 cells [1] = experiment: Mitotoxicity, XTT viability in glucose vs galactose medium; details: Homo sapiens, HepG2, 24 h
Experimental: (§1) (A) Hepatotoxicity provoked by compound 4 was assessed after 72 h incubation of HepG2 cells in low glucose medium (5 mM) in the presence of compound 4 (0.25–100 μM). (B) Mitochondrial toxicity was determined after 24 h incubation of HepG2 cells in either high glucose medium (25 mM) or galactose medium (10 mM) in the presence of compound 4 (2.5–150 μM). Cell viabilities were recorded in triplicates in three independent experiments and expressed as percentage of vehicle control ± SD and IC50 values were determined by GraphPad Prism software using following equation: Y = Bottom + (Top–Bottom)/(1 + 10ˆ((LogIC50-X)^∗HillSlope)), where IC50 is the concentration of compound 4 that inhibits cell viability half way between Bottom and Top plateaus, X is compound 4 concentration and HillSlope describes the steepness of the family of curves. […] (C) Concentration-dependent effect on ROS level. HepG2 cells were treated with compound 4 (0.25–100 μM) for 72 h, and then the intracellular level of total ROS in relative fluorescence units (RFU) was detected. The data are presented as the mean ± SD for at least three independent experiments and each experiment was carried out in triplicate. Final concentration of DMSO in samples was 1%. […] Single asterisks (^∗) indicate a significant difference (P < 0.05) compared to 1% DMSO control (one-way ANOVA with Dunnett’s post-test).
(§2) HepG2 cells (ATCC®, United Kingdom) were grown in complete Minimal Essential Medium (EMEM) (5.5 mM glucose) medium, supplemented with 10% (v/v) fetal calf serum, 200 μg/mL of streptomycin, 200 U/mL of penicillin G and 4 mM glutamine. They were cultured under a humidified atmosphere containing 5% CO2 at 37°C.
(§3) The cytotoxicity of the tested compounds was assessed with use of XTT cell proliferation kit II (Roche Diagnostics GmbH, Mannheim, Germany) according to the manufacturer’s instructions. Briefly HepG2 cells were seeded in a 96-well plate at a density of 22,000 cells per well. After 24 h, the tested neurosteroids in a concentration range from 0.5 to 200 μM were added to the culture media and incubated for 72 h before the XTT dye was added. Mitochondrial toxicity was assessed in HepG2 cells using glucose and galactose conditioned media and XTT assay as a read out for cell viability. In brief, cells were seeded onto 96 well, clear bottom tissue culture plates at a density of 22,000 cells/well and left overnight to attach. Six hours prior to the neurosteroids treatment the media was replaced with 100 μL DMEM media containing either glucose (25 mM glucose; 1 mM pyruvate; 2 mM glutamine, 10% FBS) or galactose (10 mM galactose, 1 mM pyruvate, 6 mM glutamine, 10% FBS). After that, the tested neurosteroids in a concentration range from 0.5 to 200 μM were added in the fresh appropriate assay medium (glucose or galactose) and incubated for 24 h before the XTT dye was added. The XTT absorbance was recorded at 495 nm after 1 h incubation with the dye. Compounds were dissolved in DMSO to produce the stock solutions at the concentration of 10 mM, with exception of PAG, 1, 6 (5 mM), and 11 (2.5 mM). Results were expressed as percentages of change in viability compared to appropriate DMSO control. IC50 values were determined by GraphPad Prism version 5.00 for Windows (GraphPad Software, La Jolla, CA, United States). All experiments were done in triplicates in three independent experiments to check the reproducibility.

HepG2 cells [2] = experiment: Hepatotoxicity, XTT viability after 72 h; assay type: cell-based; details: Homo sapiens; 72 h, HepG2, 5.5 mM glucose; read-out: Hepatotoxicity IC50, 5.5 mM glucose
Experimental: Then, the cell viability (XTT assay) and reactive oxygen species (ROS) induction were evaluated.
as §1, §2, §3

Measured: IC50

C[C@@]12CCC[C@H]1[C@@H]1CC[C@@H]3C[C@H](NC(=O)[C@@H](N)CC(=O)O)CC[C@]3(C)[C@H]1CC2 [Compound 6, (S)-3-amino-4-(((3R,5R,8S,9S,10S,13S,14S)-10,13-dimethylhexadecahydro-1H-cyclopenta[a]phenanthren-3-yl)amino)-4-oxobutanoic acid]
> 200 µM: HepG2 cells [1]; read-out: Mitotoxicity IC50, 10 mM galactose | HepG2 cells [1]; read-out: Mitotoxicity IC50, 25 mM glucose | HepG2 cells [2]
